From patent publication US12059230B2, “Extending fluorescent assays in vivo for biomedical sensing: wavelength modulation spectroscopy” (MASSACHUSETTS INSTITUTE OF TECHNOLOGY, priority 2019, dated 2024)

How the values were obtained:
[1] = In vitro hydrogel dynamics: sensor response fitted to the diffusion equation; format: physicochemical; details: 10×10×2 mm^3 gel with 20 mg/l (AC)15-SWNTs, 100 μM riboflavin
Protocol: FIG. 33 depicts in vitro hydrogel dynamics. […] The black curve represents the measured data, while the red line is a fit to the diffusion equation, yielding a diffusion constant of 1.04×10^−6 cm^2/s.
Hydrogel preparation. The nanotube embedded hydrogels were prepared using polyethylene glycol diacrylate from Alfa Aesar using a PEG chain length of 8000 Da (PEG8000DA). The UV triggered initiator was 2-hydroxy-4′-(2-hydroxyethoxy)-2-methylpropiophenone from Sigma Aldrich and was dissolved in a stock solution of 7 mg/mL in water before polymerization. […] The hydrogel precursor solution is held under a flowing N2 atmosphere for 30 minutes to remove dissolved oxygen. After degassing, the solution is pipetted into glass molds and returned to the nitrogen atmosphere. The molds are then exposed to 365 nm UV light (UVP Blak-Ray XX-15BLB) for 45 minutes to polymerize. Afterwards, the hydrogels were removed from the molds and left to incubate in 1×PBS overnight to remove any unreacted monomer to free-floating SWNT. Then the PBS solution was exchanged to a fresh solution and the hydrogels were ready to use.
The interaction between an analyte and the hydrogel sensor is further described with analyte diffusion. The mathematical model solves the following nondimensionalized unsteady diffusion model and boundary conditions: […]

[2] = In vivo sensor response to riboflavin injection in SKH1-E mouse (intraperitoneal implant); details: 300 μM riboflavin injected through catheter
Source text: FIGS. 5A-5H depict in vivo sensing. […] Scale bars are 5 mm. […] Sham stands for gels without a sensor, flipped configuration represents a mouse laying on its back with the signal passing through the full thickness of the animal body. […] The scale bar is 5 mm. […] The single laser excitation was at 730 nm. WIFF system was modulated at 2 Hz between 680, 730, and 780 nm. The emission collection was at >1100 nm.
FIGS. 32A-32B depict sensing experiments with mice. […] Five replicas on biologically independent animals. Sensors (10×10×2 mm^3 gel with 20 mg/l (AC)15-SWNTs)) were implanted into the intraperitoneal space of mice. […] The time t=0 corresponds to the time of injection.
The ultimate goal of fluorescent sensing is to detect analytes in vivo at the implantation point and wirelessly transmit the signal to the surface of the body. […] These types of measurements are critical for many biomedical problems focused on tissue permeability, such as targeted delivery of therapeutics, and changes in vascular permeability related to disorders, either as the origin or manifestation of various diseases. […]

Cc1cc2nc3c(=O)[nH]c(=O)nc-3n(C[C@H](O)[C@H](O)[C@H](O)CO)c2cc1C [riboflavin]
diffusion constant in the hydrogel [1]: 1.04×10^−6 cm^2/s | onset time of quenching after the injection [2]: 51 s | sensor quenching ([2]; intraperitoneal sensor, WIFF): 17%
